# Patent US9150829B2, “Culture of pluripotent and multipotent cells on microcarriers” (AGENCY FOR SCIENCE, TECHNOLOY AND RESEARCH, priority 2009, dated 2015)
# pIC50, pKi: −log10 of the molar value.
# What was measured:
# Rho kinase (ROCK) = details: cited from earlier work
# MLCK = MLCK (Homo sapiens, UniProt Q15746); details: cited from earlier work
# PKC = details: read-out: Ki PKC; cited from earlier work
# hESC [1] = assay: hESC growth and passaging on uncoated microcarriers without Matrigel with ROCK inhibitor; type: cell-based, human
# Method: Cells suspension obtained either from dispersed 2D colony culture or directly from liquid nitrogen storage (200×200 μm tissue obtained from 2D colony culture or as cell-microcarriers aggregates) are seeded at concentrations of 0.1-0.3×10^6/ml on microcarrier suspension (4 mg/ml). […] The media used are either MEF-CM or defined media. Medium is changed daily. The cultures are passaged weekly following either enzymatic treatment with collagenase or trypLE or following mechanical dissociating by repeated pipetting at a split ratio of 1:2 to 1:10. Replating of microcarrier cultures to 2D colony culture is done by placing confluent cell-microcarrier aggregates on Matrigel coated 6 cm tissue culture petridish with 8 mls of media, and culturing the cells for 7 days. Seeding of hESC on DE53, QA52, Tosoh, Cytodex 1 and Cytodex 3 microcarriers hESC were seeded on uncoated microcarriers and passaged weekly following the protocol of Example 3 and that of Oh et al., 2009 (Long term microcarrier suspension cultures of human embryonic stem cells, Stem Cell Research (2009)). All chemicals were purchased from Calbiochem. All inhibitors were diluted to their final working concentration in conditioned media prior to feeding hESC on microcarriers.
# hESC [2] = assay: FACS of pluripotent markers in hESC on microcarriers; type: cell-based, human
# Method: Characterisation was performed according to our recent paper by Oh et al., 2009 (Long term microcarrier suspension cultures of human embryonic stem cells, Stem Cell Research (2009)).
# (§1) Briefly, expression levels of extracellular antigens TRA-1-60 and intracellular transcription factor, Oct-4 in hESC populations are assessed by immunofluorescence using flow cytometry. Cells are harvested as single cell suspensions using trypsin or trypLE express, filtered through a 40 μm sieve (BD) fixed, permeabilised (Caltag Laboratories) and incubated with primary antibodies to TRA-1-60 (1:50 dilution, Chemicon, MAB4360/4381) and to Oct-4 (1:20 dilution, Santa Cruz).
# (§2) Cells are then washed with 1% BSA/PBS, and incubated in the dark with a 1:500 dilution of goat α-mouse antibody FITC-conjugated (DAKO). After incubation, the cells are again washed and resuspended in 1% BSA/PBS for analysis on a FACScan (Becton Dickinson FACS Calibur). All incubations are performed at room temperature for 15 min.
# hESC (HES-2) [3] = assay: Pluripotent marker expression in HES-2 on matrix free microcarriers with ROCK inhibitors; type: cell-based, human; details: for expression of pluripotent marker Oct4 / expression of pluripotent marker Tra-1-60: DE53
# Method: as §1, §2
# A range of ROCK inhibitors (at 10 μM) were tested for their ability to allow hESC (HES-2) cell culture on matrix free cellulose DE53 microcarriers. These included fasudil, hydroxyfasudil and […] and were compared to a control (DE53 microcarriers coated in Matrigel).
# PKCiota-Par6 interaction = target: T1, PKCiota-Par6 interaction (Homo sapiens, UniProt P41743); details: read-out: IC50 (PKCiota-Par6 interaction inhibitor); cited from earlier work
# T1 sequence (P41743 10-122 limits assumed): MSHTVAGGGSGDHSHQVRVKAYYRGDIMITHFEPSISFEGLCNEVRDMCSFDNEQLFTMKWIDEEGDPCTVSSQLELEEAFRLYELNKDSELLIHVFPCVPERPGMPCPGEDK
# iPS IMR90 cells [4] = assay: Human iPS cell growth on uncoated DE53 microcarriers with ROCK inhibitor; type: cell-based; details: uncoated DE53, mTeSR1, 10 μM daily, 12 passages
# Method: (§3) iPS IMR90 cells (1.6×10^5 cells/ml) were cultured in wells of a 6-well plate with 20 mg of uncoated DE53, 5 ml of serum free media mTeSR1, 4 μl of ROCK inhibitor (Y27632) [10 μM]. 80% media refreshment and addition of inhibitor was carried out daily.
# iPS IMR90 cells [5] = assay: Pluripotent marker expression in human iPS cells on DE53 microcarriers; type: cell-based; details: uncoated DE53, mTeSR1, 10 μM daily, 12 passages
# Method: as §1, §2, §3
# hESC (HES-2) [6] = assay: Pluripotent marker expression in HES-2 on matrix free microcarriers with ROCK inhibitors; type: cell-based, human; details: Cytodex 1, 10 μM, passage 5
# [7] = target: phosphatidylinositol 3 (PI3) kinase; details: cited from earlier work
# [8] = test system: P14 kinase, PKC, MAP kinase or c-Src; details: concentration of 50 μM; cited from earlier work
# [9] = 10 μM, daily continuous addition, after 9 weeks
# [10] = single dose addition (10 μM), after 6 weeks (P6)
# MLCK, sequence (Q15746 whole entry): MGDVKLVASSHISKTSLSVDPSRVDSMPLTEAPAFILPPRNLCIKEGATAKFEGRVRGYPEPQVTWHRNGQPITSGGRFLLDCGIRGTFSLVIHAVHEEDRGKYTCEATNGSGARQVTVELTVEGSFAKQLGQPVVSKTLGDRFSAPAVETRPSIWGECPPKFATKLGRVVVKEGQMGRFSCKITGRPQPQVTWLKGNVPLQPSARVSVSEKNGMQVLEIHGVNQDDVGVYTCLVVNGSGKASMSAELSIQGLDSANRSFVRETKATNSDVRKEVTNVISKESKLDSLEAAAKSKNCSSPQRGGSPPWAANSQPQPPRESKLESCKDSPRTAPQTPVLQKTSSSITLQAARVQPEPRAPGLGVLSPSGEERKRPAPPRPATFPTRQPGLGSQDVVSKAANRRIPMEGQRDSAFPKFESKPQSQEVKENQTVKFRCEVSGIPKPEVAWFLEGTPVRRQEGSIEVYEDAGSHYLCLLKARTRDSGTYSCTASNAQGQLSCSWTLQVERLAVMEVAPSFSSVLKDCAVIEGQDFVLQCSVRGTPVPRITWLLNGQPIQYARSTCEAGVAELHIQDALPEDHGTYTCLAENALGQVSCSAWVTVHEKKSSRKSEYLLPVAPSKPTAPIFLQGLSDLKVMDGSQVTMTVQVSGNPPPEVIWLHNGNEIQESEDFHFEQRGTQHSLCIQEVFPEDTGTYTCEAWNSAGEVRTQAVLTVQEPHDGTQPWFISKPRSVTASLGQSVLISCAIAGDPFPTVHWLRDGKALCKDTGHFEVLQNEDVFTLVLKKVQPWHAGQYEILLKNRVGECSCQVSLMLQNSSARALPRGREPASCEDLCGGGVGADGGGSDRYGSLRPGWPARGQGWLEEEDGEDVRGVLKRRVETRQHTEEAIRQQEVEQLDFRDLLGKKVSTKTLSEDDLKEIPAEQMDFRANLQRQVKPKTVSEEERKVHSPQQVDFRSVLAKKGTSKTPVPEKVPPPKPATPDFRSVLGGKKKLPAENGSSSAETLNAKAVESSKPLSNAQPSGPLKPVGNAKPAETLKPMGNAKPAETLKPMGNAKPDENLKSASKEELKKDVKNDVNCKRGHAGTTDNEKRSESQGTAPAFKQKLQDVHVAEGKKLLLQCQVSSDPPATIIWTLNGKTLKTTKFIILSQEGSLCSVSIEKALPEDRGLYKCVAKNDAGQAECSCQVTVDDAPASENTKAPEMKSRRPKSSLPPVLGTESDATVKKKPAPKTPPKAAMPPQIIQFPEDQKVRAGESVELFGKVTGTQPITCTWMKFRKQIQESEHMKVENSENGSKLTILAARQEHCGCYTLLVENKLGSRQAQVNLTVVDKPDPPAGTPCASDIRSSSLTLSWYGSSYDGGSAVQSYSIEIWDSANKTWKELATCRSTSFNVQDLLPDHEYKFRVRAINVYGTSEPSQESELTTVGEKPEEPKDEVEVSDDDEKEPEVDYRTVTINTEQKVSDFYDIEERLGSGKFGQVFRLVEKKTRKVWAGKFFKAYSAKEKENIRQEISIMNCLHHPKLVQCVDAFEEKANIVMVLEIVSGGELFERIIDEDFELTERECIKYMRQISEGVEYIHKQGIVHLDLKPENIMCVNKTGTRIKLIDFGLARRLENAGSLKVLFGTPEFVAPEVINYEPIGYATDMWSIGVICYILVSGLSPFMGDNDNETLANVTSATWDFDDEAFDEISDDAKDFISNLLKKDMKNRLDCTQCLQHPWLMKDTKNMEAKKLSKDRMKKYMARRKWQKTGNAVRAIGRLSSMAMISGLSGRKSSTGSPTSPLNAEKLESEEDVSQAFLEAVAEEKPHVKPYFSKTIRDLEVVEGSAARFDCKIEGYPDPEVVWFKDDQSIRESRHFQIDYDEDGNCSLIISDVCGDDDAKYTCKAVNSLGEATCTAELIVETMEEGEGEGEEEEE
compound,measurement,setting,value
"Cc1cncc2cccc(S(=O)(=O)N3CCCNCC3C)c12 (stereo in doubt) [H-1152, (S)-(+)-2-Methyl-1-[(4-methyl-5-isoquinolinyl)sulfonyl]homopiperazine]",pKi,Rho kinase (ROCK),8.80
same,pKi,MLCK,5.00
same,pKi,PKC,5.03
Aurothioglucose,passage successfully reached,hESC [1]; uncoated DE53,4 passage
same,expression of pluripotent markers Oct4 and mAb 84,"hESC [2]; cellulose microcarriers without Matrigel, passage 0 and 1, compared to Matrigel control",stable expression
same,expression of pluripotency markers Oct4 and mAb84,"hESC [2]; uncoated DE53, through passage 4",continued strong expression
same,expression of pluripotent marker Oct4,hESC (HES-2) [3]; [9],~50%
same,expression of pluripotent marker Tra-1-60,hESC (HES-2) [3]; [9],~60%
same,expression of pluripotent marker Oct4,hESC (HES-2) [3]; [10],60%
same,expression of pluripotent marker Tra-1-60,hESC (HES-2) [3]; [10],~70%
same,pIC50,PKCiota-Par6 interaction,6.00
"C[C@@H](N)[C@H]1CC[C@H](C(=O)Nc2ccncc2)CC1 [Y-27632, (R)-(+)-trans-N-(4-Pyridyl)-4-(1-aminoethyl)-cyclohexanecarboxamide.2HCl]",consecutive weeks of passaging hESC,"hESC [1]; cellulose DE53 microcarriers, no Matrigel, 10 μM",9 weeks
same,cell numbers,"hESC [1]; cellulose and Tosoh microcarriers, no Matrigel, passage 5",4 million/well
same,consecutive weeks of passaging hESC,"hESC [1]; cellulose, Tosoh, Cytodex 1 and Cytodex 3 microcarriers, no Matrigel",five
same,consecutive weeks of passaging hESC,"hESC [1]; spherical polylysine Tosoh 65 micron microcarriers, no Matrigel",six
same,expression of pluripotent markers Oct4 and mAb 84,"hESC [2]; Cytodex 1, Cytodex 3, cellulose and Tosoh microcarriers without Matrigel, passage 5",robust expression
same,"expression of pluripotent markers Oct4, mAb 84 and Tra-1-60","hESC [2]; DE53 without Matrigel, 9 weeks",still robust
same,expression of pluripotent markers Oct4 and mAb 84,"hESC [2]; DE53 without Matrigel, over 3 weeks",stable expression
same,expression of pluripotent markers Oct4 and Tra-1-60,"hESC [2]; Tosoh polylysine microcarriers without Matrigel, passage 4",strongly expressed
same,pluripotent marker expression (Tra-1-60) versus Matrigel control cultures,"hESC (HES-2) [3]; Cytodex 1 and DE53 microcarriers, 10 μM",similar
same,expression of Tra-1-60 (FACS),"hESC (HES-2) [3]; DE53, 10 μM, passage 5",~92%
same,expression of pluripotent marker Oct4,hESC (HES-2) [3]; [10],60%
same,expression of pluripotent marker Tra-1-60,hESC (HES-2) [3]; [10],about 80%
same,cell density,iPS IMR90 cells [4],stable over 12 passages
same,Oct4 and Tra-1-60 expression,iPS IMR90 cells [5],stable over 12 passages
same,expression of Tra-1-60 (FACS),hESC (HES-2) [6],~94%
"O=C(Nc1ccncc1)Nc1c(Cl)cc(Cl)cc1Cl [N-(4-Pyridyl)-N′-(2,4,6-trichlorophenyl) urea]",pIC50,Rho kinase (ROCK),6.70
c1ccc2c(-c3ccncc3)c[nH]c2c1 [3-(4-Pyridyl)-1H-indole],pIC50,Rho kinase (ROCK),4.60
Cl.O=S(=O)(c1cccc2c(O)nccc12)N1CCCNCC1 [HA-1100],expression of pluripotent marker Tra-1-60,hESC (HES-2) [3]; [9],about 80%
same,expression of pluripotent marker Oct4,hESC (HES-2) [3]; [10],60%
same,expression of pluripotent marker Tra-1-60,hESC (HES-2) [3]; [10],~50%
O=c1cc(N2CCOCC2)oc2c(-c3ccccc3)cccc12 [LY294002],pIC50,[7],5.85
same,IC50 PI3 kinase activity,[7],0.43 µg/mL
same,effect on PI3 kinase activity,[7]; concentration of 50 μM,specifically abolished PI3 kinase activity
same,inhibition of other lipid and protein kinases,[8],did not inhibit
O=S(=O)(c1cccc2cnccc12)N1CCCNCC1 [HA-1077],expression of pluripotent marker Tra-1-60,hESC (HES-2) [3]; [9],about 80%
same,expression of pluripotent marker Oct4,hESC (HES-2) [3]; [10],60%
same,expression of pluripotent marker Tra-1-60,hESC (HES-2) [3]; [10],about 80%
